Measured values from the supplement of paper PMC11451515.

Tested on: P12-Ichikawa
Assay: cell viability relative to DMSO control; higher = less cytotoxic
Conditions: 48 h
Outline: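 Viability, reported as a per-plate percentage of DMSO wells with cell-free wells as background, came from CellTiter-Glo One luminescence. Reading took place after 48 h at 37°C. Before that, NOMO1 or SEM (500 cells/well) or P12-Ichikawa (1000 cells/well) leukemia cells, adapted for at least four passages in each medium, were seeded in 1536-well plates (5 μl) and pin-dosed with library compounds in DMSO, 47 μM to 0.79 nM over 11 threefold points.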

[1] = HPLM + 10% dialyzed FBS, 0.000781 µM
[2] = HPLM + 10% dialyzed FBS, 0.00234 µM
[3] = HPLM + 10% dialyzed FBS, 0.00702 µM
[4] = HPLM + 10% dialyzed FBS, 0.0211 µM
[5] = HPLM + 10% dialyzed FBS, 0.0632 µM
[6] = HPLM + 10% dialyzed FBS, 0.19 µM
[7] = HPLM + 10% dialyzed FBS, 0.569 µM
[8] = HPLM + 10% dialyzed FBS, 1.71 µM
[9] = HPLM + 10% dialyzed FBS, 5.12 µM
[10] = HPLM + 10% dialyzed FBS, 15.4 µM
[11] = HPLM + 10% dialyzed FBS, 46.1 µM
[12] = RPMI 5 mM glucose + 10% FBS, 0.000781 µM
[13] = RPMI 5 mM glucose + 10% FBS, 0.00234 µM
[14] = RPMI 5 mM glucose + 10% FBS, 0.00702 µM
[15] = RPMI 5 mM glucose + 10% FBS, 0.0211 µM
[16] = RPMI 5 mM glucose + 10% FBS, 0.0632 µM
[17] = RPMI 5 mM glucose + 10% FBS, 0.19 µM
[18] = RPMI 5 mM glucose + 10% FBS, 0.569 µM
[19] = RPMI 5 mM glucose + 10% FBS, 1.71 µM
[20] = RPMI 5 mM glucose + 10% FBS, 5.12 µM
[21] = RPMI 5 mM glucose + 10% FBS, 15.4 µM
[22] = RPMI 5 mM glucose + 10% FBS, 46.1 µM
[23] = RPMI 5 mM glucose + 10% dialyzed FBS, 0.000781 µM
[24] = RPMI 5 mM glucose + 10% dialyzed FBS, 0.00234 µM
[25] = RPMI 5 mM glucose + 10% dialyzed FBS, 0.00702 µM
[26] = RPMI 5 mM glucose + 10% dialyzed FBS, 0.0211 µM
[27] = RPMI 5 mM glucose + 10% dialyzed FBS, 0.0632 µM
[28] = RPMI 5 mM glucose + 10% dialyzed FBS, 0.19 µM
[29] = RPMI 5 mM glucose + 10% dialyzed FBS, 0.569 µM
[30] = RPMI 5 mM glucose + 10% dialyzed FBS, 1.71 µM
[31] = RPMI 5 mM glucose + 10% dialyzed FBS, 5.12 µM
[32] = RPMI 5 mM glucose + 10% dialyzed FBS, 15.4 µM
[33] = RPMI 5 mM glucose + 10% dialyzed FBS, 46.1 µM

SMILES | cell viability [1] [%] | cell viability [2] [%] | cell viability [3] [%] | cell viability [4] [%] | cell viability [5] [%] | cell viability [6] [%] | cell viability [7] [%] | cell viability [8] [%] | cell viability [9] [%] | cell viability [10] [%] | cell viability [11] [%] | cell viability [12] [%] | cell viability [13] [%] | cell viability [14] [%] | cell viability [15] [%] | cell viability [16] [%] | cell viability [17] [%] | cell viability [18] [%] | cell viability [19] [%] | cell viability [20] [%] | cell viability [21] [%] | cell viability [22] [%] | cell viability [23] [%] | cell viability [24] [%] | cell viability [25] [%] | cell viability [26] [%] | cell viability [27] [%] | cell viability [28] [%] | cell viability [29] [%] | cell viability [30] [%] | cell viability [31] [%] | cell viability [32] [%] | cell viability [33] [%]
Cc1cc(OCCCc2c(C(=O)O)n(Cc3cccnc3)c3c(-c4c(COc5ccc(N6CCN([S+](C)(=O)[O-])CC6)cc5)nn(C)c4C)cccc23)cc(C)c1Cl | 99.6 | 100 | 100 | 97 | 99.8 | 97.4 | 92.9 | 96.1 | 86.9 | 88.1 | 80.4 | 92.4 | 102 | 96.6 | 102 | 101 | 95.6 | 85.9 | 89.3 | 86.2 | 88.3 | 77.1 | 91.3 | 95 | 99.3 | 97.5 | 102 | 98.4 | 90.9 | 93.5 | 93.1 | 78.2 | 82.9
COc1cnc(N[S+](=O)([O-])c2ccc(N)cc2)nc1 | 107 | 118 | 113 | 119 | 122 | 125 | 134 | 126 | 117 | 90.1 | 45.1 | 101 | 109 | 109 | 117 | 118 | 118 | 126 | 130 | 117 | 102 | 59.2 | 111 | 108 | 122 | 119 | 127 | 118 | 128 | 124 | 119 | 104 | 67
OC(=O)C1=CC=C(NC2=NC3=C(C\N=C(/C4=CC(=CC=C34)Cl)C5=C(F)C=CC=C5F)C=N2)C=C1 | 93.9 | 101 | 97.8 | 105 | 104 | 89.4 | 77.6 | 48.5 | 27.1 | 18.6 | 18.3 | 95.8 | 99.1 | 106 | 107 | 110 | 93.9 | 74.4 | 48.9 | 27 | 24.7 | 25.1 | 98.1 | 95.1 | 96.2 | 91.4 | 101 | 95.4 | 75.7 | 52.3 | 36.6 | 32.6 | 30.7
COc1cccc2cc(-c3nc(C4CCC(C(=O)O)CC4)n4ncnc(N)c34)[nH]c12 (configuration not stated) | 111 | 117 | 120 | 112 | 91.3 | 98.6 | 21 | 14.3 | 13.8 | 14.2 | 24.5 | 109 | 116 | 114 | 99.9 | 89 | 91.4 | 67.8 | 18.7 | 13.8 | 13.4 | 12.6 | 115 | 123 | 112 | 119 | 89.6 | 93.3 | 70.2 | 26.5 | 23.2 | 20.1 | 22.3
